Results published in patent US9073918B2, “Pyrazolo[4,3-b]pyridine-7-amine inhibitors of ALK5” (Takeda Pharmaceutical Company Limited, priority 2010, dated 2015).

Columns and labels:
TGF-β R1 ALK5 = target: T1, TGF-β R1 ALK5 (Homo sapiens, UniProt P36897); assay: In vitro inhibition of ALK5 (LanthaScreen activity assay, TR-FRET); format: biochemical
T1 construct: purchased Invitrogen PV5837
T1 sequence (P36897 34-503): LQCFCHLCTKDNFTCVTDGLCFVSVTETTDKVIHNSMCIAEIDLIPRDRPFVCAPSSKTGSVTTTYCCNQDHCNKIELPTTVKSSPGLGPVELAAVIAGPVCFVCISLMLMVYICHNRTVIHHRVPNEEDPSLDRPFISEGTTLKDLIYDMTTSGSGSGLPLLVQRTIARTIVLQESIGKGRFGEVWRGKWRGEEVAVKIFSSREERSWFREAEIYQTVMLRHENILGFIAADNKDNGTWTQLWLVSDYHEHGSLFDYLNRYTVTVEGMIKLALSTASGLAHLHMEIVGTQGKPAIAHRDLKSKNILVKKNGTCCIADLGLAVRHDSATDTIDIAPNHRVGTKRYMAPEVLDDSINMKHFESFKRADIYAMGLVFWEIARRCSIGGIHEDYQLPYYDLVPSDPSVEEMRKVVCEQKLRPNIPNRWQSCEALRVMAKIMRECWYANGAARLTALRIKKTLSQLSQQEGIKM
Method: Test compounds were screened for TGF-β R1 ALK5 inhibition by use of a LanthaScreen™ activity assay (PV5837 Invitrogen, Invitrogen Corp. Madison, Wis.).
In brief, the assay procedure was as follows:
Solutions of test compounds were prepared in DMSO and diluted two-fold serially.
Assays were incubated for 90 minutes at room temperature and then quenched by the addition of 60 mM EDTA and 8 nM Terbium labeled anti-pSMAD3 Antibody (M4337 from Invitrogen) giving a final concentration of 15 mM EDTA and 2 nM Terbium labeled anti-pSMAD3 Antibody. Phosphorylated peptide product was quantified by measuring an increase in TR-FRET on a BMG LABTECH PHERA star plus. Response is defined as the ratio of Channel A/Channel B. The response of a blank (uninhibited) using vehicle alone is also determined. Enzyme activity was defined as the response of uninhibited enzyme activity minus the response of assays containing no enzyme. The percent inhibition of ALK5 at a given compound concentration is defined as: 100%×[1−(response compound/response blank)]
where response compound is defined as the enzyme activity in the presence of test compound and response blank is defined as the uninhibited enzyme activity. The pIC50 value (negative log of the molar concentration of the compound that produces 50% inhibition) of a test compound is calculated by non-linear least squares curve fitting of the equation: Percent Inhibition=100%/(1+(10−pIC50/10 log [I])).
Where inhibition was measured in multiple experiments the value in Table 1 is an average. N.T. means not tested.

cellular TGF-β R1 ALK5 = target: T2, cellular TGF-β R1 ALK5 (Homo sapiens, UniProt P36897); assay: Cellular inhibition of ALK5 (CellSensor SBE-bla HEK 293T beta-lactamase reporter); format: cell-based; details: cellular inhibition of ALK5, SBE-bla HEK 293T cells, TGFb-1 stimulated 5 hours; average where measured in multiple experiments
T2 construct: host or cells: CellSensor SBE-bla HEK 293T
T2 sequence (P36897 34-503): T1 sequence (P36897 34-503)
Text: Test compounds were screened for cellular TGF-β R1 ALK5 inhibition by use of a CellSensor® SBE-bla HEK 293T (K1550, Invitrogen Corp. Madison, Wis.) cell line. The CellSensor® SBE-bla HEK 293T cell line contains a beta-lactamase reporter gene under control of the SBE response element stably integrated into HEK 293T cells. The SBE response element is a DNA region that binds activated SMADs which results from the binding of TGF-β to, and subsequent activation of ALK5.
The assay procedure was as follows:
CellSensor® SBE-bla HEK 293T cell line were plated at 12,000 cells/well in 40 ul DMEM plus 5 ug/ml blasticidin into 384-well, black-wall, clear-bottom assay plate and incubated overnight.
The following day 5 uL of 10×, 2.5-fold serially diluted test compounds in DMSO were added into cells to a final compound concentration of 1× and DMSO concentration of 0.5%. Assay was incubated for 1 hour at 37° C., 5% CO2, 5 uL of 100 ng/mL TGFb-1 was then added to activate ALK5 and incubated for 5 hours at 37° C., 5% CO2, 10 uL of detector, LiveBLAzer FRET B/G substrate (CCF4-AM, Invitrogen Corp. Madison, Wis.) was added to cells and incubated for 2 hours at RT. Assay was measured using Spectramax, a bottom-read fluorescence plate reader, at excitation setting of 405 nm and emission settings of 460 nm and 530 nm.
Response is defined as the ratio of background corrected 460 nm emission values/background corrected 530 nm emission values. Cellular activity was defined as percent inhibition of uninhibited ALK5 activity (wells treated with DMSO+TGF-β). The percent inhibition of cellular ALK5 at a given compound concentration is defined as: 100%×[1−(response compound+TGF-β/response DMSO+TGF-β)] where response compound+TGF-β is defined as the activity in the presence of test compound and response DMSO+TGF-β is defined as the uninhibited cellular ALK5 activity. The pIC50 value (negative log of the molar concentration of the compound that produces 50% inhibition) of a test compound is calculated by non-linear least squares curve fitting. pIC50 values, the negative of the log of the IC50, are calculated by non-linear curve fitting of the compound concentrations and percent of inhibition to the standard pIC50 equation.
Where inhibition was measured in multiple experiments the value in Table 2 is an average. N.T. means not tested.

| SMILES | IC50 (TGF-β R1 ALK5) [nM] | IC50 (cellular TGF-β R1 ALK5) [nM] |
| --- | --- | --- |
| Cc1ccc(F)c(-c2cc(Nc3ccnc4cn(C5CC5)nc34)ccn2)n1 [Example 121, 2-cyclopropyl-N-(3′-fluoro-6′-methyl-2,2′-bipyridin-4-yl)-2H-pyrazolo[4,3-b]pyridin-7-amine] | 3.16 | 12.6 |
| COCCCn1cc2nccc(Nc3ccnc(-c4cc(Cl)ccc4F)c3)c2n1 [Example 34, N-(2-(5-chloro-2-fluorophenyl)pyridin-4-yl)-2-(3-methoxypropyl)-2H-pyrazolo[4,3-b]pyridin-7-amine] | 398 | 398 |
| Cc1nc(-c2cc(F)ccc2F)cc(Nc2ccnc3c[nH]nc23)c1C [Example 95, N-(6-(2,5-difluorophenyl)-2,3-dimethylpyridin-4-yl)-2H-pyrazolo[4,3-b]pyridin-7-amine] | 20 | 158 |
| Cc1cnc(-c2cc(Cl)ccc2F)nc1Nc1ccnc2cn[nH]c12 [Example 1, N-(2-(5-chloro-2-fluorophenyl)-5-methylpyrimidin-4-yl)-1H-pyrazolo[4,3-b]pyridin-7-amine] | 10 | 50.1 |
| Cc1ccc(F)c(-c2cc(Nc3ccnc4cn(C[C@H](O)CO)nc34)ccn2)n1 [Example 69, (S)-3-(7-(3′-fluoro-6′-methyl-2,2′-bipyridin-4-ylamino)-2H-pyrazolo[4,3-b]pyridin-2-yl)propane-1,2-diol] | 5010 | 5010 |
| Cc1ccc(F)c(-c2cc(Nc3ccnc4cnn(C5CC5)c34)ccn2)n1 [Example 133, 1-cyclopropyl-N-(3′-fluoro-6′-methyl-2,2′-bipyridin-4-yl)-1H-pyrazolo[4,3-b]pyridin-7-amine] | 5.01 | 31.6 |
| Cc1ccc(F)c(-c2cc(Nc3ccnc4cn(CCF)nc34)c(C)cn2)n1 [Example 129, N-(3′-fluoro-5,6′-dimethyl-2,2′-bipyridin-4-yl)-2-(2-fluoroethyl)-2H-pyrazolo[4,3-b]pyridin-7-amine] | 6.31 | 15.8 |
| Cc1ccc(F)c(-c2cc(Nc3ccnc4cn(C[C@H](O)CO)nc34)c(C)cn2)n1 [Example 7, (S)-3-(7-(3′-fluoro-5,6′-dimethyl-2,2′-bipyridin-4-ylamino)-2H-pyrazolo[4,3-b]pyridin-2-yl)propane-1,2-diol] | 15.8 | 200 |
| Cc1ccc(F)c(-c2cc(Nc3ccnc4cn(C)nc34)ccn2)n1 [Example 66, N-(3′-fluoro-6′-methyl-2,2′-bipyridin-4-yl)-2-methyl-2H-pyrazolo[4,3-b]pyridin-7-amine] | 39.8 | 39.8 |
| Cc1ccc(F)c(-c2cc(Nc3ccnc4cn(C5CC5)nc34)c(C)cn2)n1 [Example 122, 2-cyclopropyl-N-(3′-fluoro-5,6′-dimethyl-2,2′-bipyridin-4-yl)-2H-pyrazolo[4,3-b]pyridin-7-amine] | 2 | 10 |
| Cc1ccc(F)c(-c2cc(Nc3ccnc4cnn(CCO)c34)ccn2)n1 [Example 71, 2-(7-(3′-fluoro-6′-methyl-2,2′-bipyridin-4-ylamino)-1H-pyrazolo[4,3-b]pyridin-1-yl)ethanol] | 50.1 | 63.1 |
| CCn1cc2nccc(Nc3ccnc(-c4nc(C)ccc4F)c3)c2n1 [Example 125, 2-ethyl-N-(3′-fluoro-6′-methyl-2,2′-bipyridin-4-yl)-2H-pyrazolo[4,3-b]pyridin-7-amine] | 15.8 | 39.8 |
| Cc1ccc(F)c(-c2cc(Nc3c(F)cnc4cn(CC(C)(C)O)nc34)c(C)cn2)n1 [Example 99, 1-(6-fluoro-7-(3′-fluoro-5,6′-dimethyl-2,2′-bipyridin-4-ylamino)-2H-pyrazolo[4,3-b]pyridin-2-yl)-2-methylpropan-2-ol] | 501 | 1260 |
| CCCn1ncc2nccc(Nc3ccnc(-c4cc(Cl)ccc4F)c3)c21 [Example 18, N-(2-(5-chloro-2-fluorophenyl)pyridin-4-yl)-1-propyl-1H-pyrazolo[4,3-b]pyridin-7-amine] | 50.1 | 631 |
| CNC(=O)Cn1cc2nccc(Nc3cc(-c4cc(F)ccc4F)ncc3C)c2n1 [Example 158, 2-(7-(2-(2,5-difluorophenyl)-5-methylpyridin-4-ylamino)-2H-pyrazolo[4,3-b]pyridin-2-yl)-N-methylacetamide] | 6.31 | 126 |
| Cc1ccc(F)c(-c2cc(Nc3ccnc4cn([C@@H]5CCOC5)nc34)c(C)cn2)n1 [Example 136, (R)—N-(3′-fluoro-5,6′-dimethyl-2,2′-bipyridin-4-yl)-2-(tetrahydrofuran-3-yl)-2H-pyrazolo[4,3-b]pyridin-7-amine] | 6.31 | 79.4 |
| CCNC(=O)n1ncc2nccc(Nc3cc(-c4cc(F)ccc4F)ncc3C)c21 [Example 109, 7-(2-(2,5-difluorophenyl)-5-methylpyridin-4-ylamino)-N-ethyl-1H-pyrazolo[4,3-b]pyridine-1-carboxamide] | 1.58 | 20 |
| Cc1cnc(-c2cc(F)ccc2F)cc1Nc1ccnc2cn[nH]c12 [Example 108, N-(2-(2,5-difluorophenyl)-5-methylpyridin-4-yl)-1H-pyrazolo[4,3-b]pyridin-7-amine] | 1 | 7.94 |
| CCn1cc2ncc(F)c(Nc3cc(-c4nc(C)ccc4F)ncc3C)c2n1 [Example 138, 2-ethyl-6-fluoro-N-(3′-fluoro-5,6′-dimethyl-2,2′-bipyridin-4-yl)-2H-pyrazolo[4,3-b]pyridin-7-amine] | 7.94 | 15.8 |
| CNC(=O)n1ncc2nccc(Nc3cc(-c4cc(F)ccc4F)ncc3C)c21 [Example 116, 7-(2-(2,5-difluorophenyl)-5-methylpyridin-4-ylamino)-N-methyl-1H-pyrazolo[4,3-b]pyridine-1-carboxamide] | 1 | 25.1 |
| Cc1ccc(F)c(-c2cc(Nc3ccnc4cn(CCCO)nc34)c(C)cn2)n1 [Example 90, 3-(7-(3′-fluoro-5,6′-dimethyl-2,2′-bipyridin-4-ylamino)-2H-pyrazolo[4,3-b]pyridin-2-yl)propan-1-ol] | 7.94 | 63.1 |
| CNC(=O)n1ncc2nccc(Nc3cc(C)nc(-c4cc(Cl)ccc4F)c3)c21 [Example 58, 7-(2-(5-chloro-2-fluorophenyl)-6-methylpyridin-4-ylamino)-N-methyl-1H-pyrazolo[4,3-b]pyridine-1-carboxamide] | 79.4 | 126 |
| CCNC(=O)Cn1ncc2nccc(Nc3cc(-c4cc(F)ccc4F)ncc3C)c21 [Example 155, 2-(7-(2-(2,5-difluorophenyl)-5-methylpyridin-4-ylamino)-1H-pyrazolo[4,3-b]pyridin-1-yl)-N-ethylacetamide] | 25.1 | 794 |
